Experimental data taken from patent US20230149303A1, “BUCCAL AND ENTERIC DELIVERY OF FATTY ACIDS IN FOODS AND BEVERAGES” (priority 2020, published 2023).
Where two headings read alike, the source gives them in different places.

Experiments:
[1] = mucosal quick release, retained in the mouth for several seconds; cited from earlier work
CB2 receptors = experiment: estimated affinity relative to CBD; type: binding
Description: Because CB2 receptors have a low affinity for CBD, large doses of CBD have increasingly advantageous pharmacological effects. However, CBD is relatively expensive, so the ratio of CBD to other components is more prone to cost/efficacy trade-offs than other components of the formulation. Alternatives can skimp on CBD and even drop the ratio of CBD-to-caffeine below the recommended 1:1 ratio, which should have acceptable effects so long as the caffeine is not in such a high dosage that it causes jitters.
A greater proportion of CBD may be desirable for the purpose of binding to theorized CBD3 receptors or other presently poorly defined receptors with less affinity for CBD. A high dose of CBD, over 100 mg up to less than 250 mg can have a sedative effect that may be effective for certain individuals, though it is unlikely desirable to reach 250 mg, which is approaching the liver enzyme inhibition dose. Although, currently marketed energy drinks have as much as 250 mg caffeine, it would be difficult to fit that much caffeine into a nurdle while maintaining a 1:1 ratio of CBD-to-caffeine (not to mention the 1:2 ratio of caffeine-to-theanine), so the upper ranges of CBD become largely irrelevant in this particular product due to volumetric constraints. […]

[2] = bioavailability after oral, mucosal/buccal or enteric delivery; type: in vivo
Experimental: B6 helps the body produce neurotransmitters (e.g., serotonin); it can block glutamate and help the brain learn to calm. […] B6 can also be delivered enterically with nearly 100% bioavailability, as well.
In a specific implementation, microencapsulated CBD is provided as an analgesic in an edible toothpaste. In this specific implementation, 20 mg of the CBD is microencapsulated for buccal delivery to act as a localized analgesic in the mouth. CBD is degraded in the stomach but, as was discussed above, CBD is readily absorbed in mucosa. Although it is recognized not all patients will follow best practices, bioavailability estimates assume the amount of time spent brushing is 2 minutes, which is the time span over which the edible toothpaste remains in the mouth and which is long enough to make almost all of CBD formulated for buccal delivery bioavailable. Accordingly, when the product is used as directed, the CBD remains in the mouth long enough to achieve over 90% bioavailability. Thus, the amount of buccally delivered CBD can be added to that of enterically delivered CBD to determine a total systemic dose.
As with the edible toothpaste described above, a first portion of the CBD is formulated for buccal delivery and a second portion of the CBD is formulated for enteric delivery. […] CBD is degraded in the stomach but, as was discussed above, CBD is readily absorbed in mucosa. […]

TrpV1 receptor = target: T1, TrpV1 receptor (Homo sapiens, UniProt Q8NER1); conditions: absorbed through mucosa; cited from earlier work
T1 construct: It typically takes over 20 minutes for CBD absorbed through mucosa to provide significant pain relief; from tissue; host or cells: oral mucosa / body of the user (in vivo)

[3] = cited from earlier work
[4] = in vivo; cited from earlier work

T1 sequence (Q8NER1 whole entry): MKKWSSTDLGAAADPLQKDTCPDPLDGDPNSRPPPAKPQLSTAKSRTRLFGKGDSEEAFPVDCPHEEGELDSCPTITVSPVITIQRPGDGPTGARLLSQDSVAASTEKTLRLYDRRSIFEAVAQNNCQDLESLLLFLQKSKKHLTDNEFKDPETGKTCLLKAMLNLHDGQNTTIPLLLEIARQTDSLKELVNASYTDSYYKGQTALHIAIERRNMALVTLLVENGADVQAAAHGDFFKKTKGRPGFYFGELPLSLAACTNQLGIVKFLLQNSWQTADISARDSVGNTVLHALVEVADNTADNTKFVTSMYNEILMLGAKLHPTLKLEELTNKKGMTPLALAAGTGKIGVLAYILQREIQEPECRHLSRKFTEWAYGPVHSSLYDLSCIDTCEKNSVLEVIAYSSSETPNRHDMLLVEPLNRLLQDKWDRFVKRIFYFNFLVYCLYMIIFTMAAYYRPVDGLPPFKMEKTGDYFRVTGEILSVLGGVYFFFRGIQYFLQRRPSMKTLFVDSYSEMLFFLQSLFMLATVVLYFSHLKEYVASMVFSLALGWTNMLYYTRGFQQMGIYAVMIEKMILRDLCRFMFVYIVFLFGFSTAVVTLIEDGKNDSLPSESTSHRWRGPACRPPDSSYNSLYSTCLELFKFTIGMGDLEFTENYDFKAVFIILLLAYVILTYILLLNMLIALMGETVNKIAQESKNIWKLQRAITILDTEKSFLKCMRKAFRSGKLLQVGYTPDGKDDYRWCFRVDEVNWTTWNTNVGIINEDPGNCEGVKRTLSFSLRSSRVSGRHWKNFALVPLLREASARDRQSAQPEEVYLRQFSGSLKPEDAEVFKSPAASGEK

CCCCCCCCCCCCCCCC(=O)OCc1cnc(C)c(OC(=O)CCCCCCCCCCCCCCC)c1COC(=O)CCCCCCCCCCCCCCC [pyridoxine tripalmitate]
bioavailable [1]: over 90%

2-Palmitolyl-glycerol
affinity relative to CBD (CB2 receptors): ~1,000 times

C=C(C)[C@@H]1CCC(C)=C[C@H]1c1c(O)cc(CCCCC)cc1O [CBD]
bioavailability ([2]; buccal delivery from edible toothpaste, estimate assumes 2 minutes brushing): over 90%
bioavailability ([2]; buccal delivery from mouthwash, estimate assumes 30 seconds to one minute in the mouth): over 90%
time to provide significant pain relief (TrpV1 receptor): over 20 minutes
half-life in the bloodstream ([3]; frequent user): 120 to 312 h
half-life in the bloodstream ([3]; infrequent user): about 1.3 days

2-Lineoleoyl-glycerol
affinity relative to CBD (CB2 receptors): ~1,000 times

CC1CCC(C(C)C)C(O)C1 (stereo not drawn) [menthol]
lethal dose [4]: ≥ 50 mg/kg
